# Results: patent US6737383B1, “Herbicidal oxadiazolidines” (priority 1999, dated 2004)
# What was measured:
# giant foxtail = assay: Test B pre/postemergence giant foxtail; type: in vivo, Setaria faberii
# Summary of the method: (§1)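 Herbicidal effect was estimated by eye on a ten-point control scale after plants spent twelve to sixteen days in a greenhouse following soil or foliar treatment. Foliar sprays targeted plants at one to four leaves; all doses were formulated in a non-phytotoxic solvent with surfactant.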
# velvetleaf = assay: Test B pre/postemergence velvetleaf; type: in vivo, Abutilon theophrasti
# Summary of the method: as §1
# rice = assay: Test B flood test rice; type: in vivo, Oryza sativa
# Summary of the method: (§2)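 Plants were grown to the 2-leaf stage before treatment with test chemical, then held in a greenhouse for twelve to sixteen days. Injury was visually rated against untreated controls on a 0–10 scale, where 0 is no effect and 10 is complete control.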
# soybean = assay: Test B pre/postemergence soybean; type: in vivo, Glycine max; conditions: for Plant response rating, Soybean: Rate 500 g/ha
# Summary of the method: as §1
# wild oat = assay: Test B pre/postemergence wild oat; type: in vivo, Avena fatua
# Summary of the method: as §1
# bamyardgrass = assay: Test B flood test barnyardgrass; type: in vivo, Echinochloa crus-galli
# Summary of the method: as §2
# bedstraw = assay: Test B pre/postemergence bedstraw; type: in vivo, Galium aparine; conditions: Preemergence
# Summary of the method: as §1
# sugar beet = assay: Test B pre/postemergence sugar beet; type: in vivo, Beta vulgaris
# Summary of the method: as §1
# morningglory = assay: Test B pre/postemergence morningglory; type: in vivo, Ipomoea hederacea
# Summary of the method: as §1
# duck salad = assay: Test B flood test duck salad; type: in vivo, Heteranthera limosa
# Summary of the method: as §2
# cocklebur = assay: Test B pre/postemergence cocklebur; type: in vivo, Xanthium strumarium
# Summary of the method: as §1
# corn = assay: Test B pre/postemergence corn; type: in vivo, Zea mays
# Summary of the method: as §1
# crabgrass = assay: Test B pre/postemergence crabgrass; type: in vivo, Digitaria sanguinalis
# Summary of the method: as §1
# smallflower flatsedge = assay: Test B flood test smallflower flatsedge; type: in vivo, Cyperus difformis
# Summary of the method: as §2
# pigweed = assay: Test B pre/postemergence pigweed; type: in vivo, Amaranthus retroflexus
# Summary of the method: as §1
# wheat = assay: Test B pre/postemergence wheat; type: in vivo, Triticum aestivum
# Summary of the method: as §1
# rape = assay: Test B pre/postemergence rape; type: in vivo, Brassica napus
# Summary of the method: as §1
# purple nutsedge = assay: Test B pre/postemergence purple nutsedge; type: in vivo, Cyperus rotundus
# Summary of the method: as §1
# surinam grass = assay: Test B pre/postemergence surinam grass; type: in vivo, Brachiaria decumbens
# Summary of the method: as §1
# blackgrass = assay: Test B pre/postemergence blackgrass; type: in vivo, Alopecurus myosuroides
# Summary of the method: as §1
# [1] = Postemergence, Rate 62 g/ha, scale of 0 to 10, 0 is no effect, 10 is complete control
# [2] = Postemergence, Rate 125 g/ha, scale of 0 to 10 where 0 is no effect and 10 is complete control
# [3] = Postemergence, Rate 250 g/ha, scale of 0 to 10, 0 is no effect, 10 is complete control
# [4] = Postemergence, Rate 500 g/ha, scale of 0 to 10 where 0 is no effect and 10 is complete control
# [5] = Preemergence, Rate 62 g/ha, scale 0 to 10 (0 no effect, 10 complete control)
# [6] = Preemergence, Rate 125 g/ha, scale of 0 to 10 where 0 is no effect and 10 is complete control
# [7] = Preemergence, Rate 500 g/ha, scale of 0 to 10 where 0 is no effect and 10 is complete control
# [8] = Rate 62 g/ha, flood test species, Pre-emergence, visual evaluation after twelve to sixteen days
# [9] = Rate 125 g/ha, under heading Pre-emergence, flood test species, visual evaluation after twelve to sixteen days
# [10] = Rate 250 g/ha, Pre-emergence (flood test species), scale 0 to 10, 0 is no effect, 10 is complete control
# [11] = Rate 500 g/ha, Pre-emergence section of Table B, 0 to 10 scale (0 no effect, 10 complete control)
structure (smiles),measurement,setting,value
CC(C)N(C(=O)n1oc(=O)n(C(CF)CF)c1=O)c1ccc(F)cc1F [Compound 595],Giant foxtail plant response rating,giant foxtail; [1],8
same,"Plant response rating, Giant foxtail",giant foxtail; [2],9
same,Giant foxtail plant response rating,giant foxtail; [3],9
same,"Plant response rating, Giant foxtail",giant foxtail; [4],9
same,Giant foxtail plant response rating,giant foxtail; [5],10
same,Giant foxtail plant response rating,giant foxtail; [6],10
same,"Plant response rating, Giant foxtail",giant foxtail; [7],9
same,"Plant response rating, Velvetleaf",velvetleaf; [2],4
same,Velvetleaf plant response rating,velvetleaf; [3],7
same,"Plant response rating, Velvetleaf",velvetleaf; [4],7
same,Velvetleaf plant response rating,velvetleaf; [5],7
same,Velvetleaf plant response rating,velvetleaf; [6],7
same,"Plant response rating, Velvetleaf",velvetleaf; [7],9
same,"Plant response rating, Rice (0 to 10 scale, 0 is no effect, 10 is complete control)",rice; [8],0
same,"Rice plant response rating (0 to 10 scale, 0 is no effect, 10 is complete control)",rice; [9],0
same,Rice plant response rating,rice; [10],0
same,Rice plant response rating,rice; [11],0
same,Soybean plant response rating,soybean; [3],4
same,"Plant response rating, Soybean","soybean; Postemergence, scale of 0 to 10 where 0 is no effect and 10 is complete control",4
same,Soybean plant response rating,soybean; [5],0
same,Soybean plant response rating,soybean; [6],1
same,"Plant response rating, Soybean","soybean; Preemergence, scale of 0 to 10 where 0 is no effect and 10 is complete control",4
same,"Plant response rating, Wild oats",wild oat; [2],0
same,Wild oats plant response rating,wild oat; [3],2
same,"Plant response rating, Wild oats",wild oat; [4],4
same,Wild oats plant response rating,wild oat; [5],3
same,Wild oats plant response rating,wild oat; [6],8
same,"Plant response rating, Wild oats",wild oat; [7],9
same,"Plant response rating, Barnyardgrass (0 to 10 scale, 0 is no effect, 10 is complete control)",bamyardgrass; [8],0
same,"Barnyardgrass plant response rating (0 to 10 scale, 0 is no effect, 10 is complete control)",bamyardgrass; [9],0
same,Barnyardgrass plant response rating,bamyardgrass; [10],0
same,Barnyardgrass plant response rating,bamyardgrass; [11],0
same,Bedstraw plant response rating,"bedstraw; Rate 62 g/ha, scale 0 to 10 (0 no effect, 10 complete control)",0
same,Bedstraw plant response rating,"bedstraw; Rate 125 g/ha, scale of 0 to 10 where 0 is no effect and 10 is complete control",8
same,Bedstraw plant response rating,"bedstraw; Rate 500 g/ha, scale of 0 to 10 where 0 is no effect and 10 is complete control",10
same,"Plant response rating, Sugarbeets",sugar beet; [2],3
same,Sugarbeets plant response rating,sugar beet; [3],3
same,"Plant response rating, Sugarbeets",sugar beet; [4],3
same,Sugarbeets plant response rating,sugar beet; [5],6
same,Sugarbeets plant response rating,sugar beet; [6],8
same,"Plant response rating, Sugarbeets",sugar beet; [7],9
same,Morningglory plant response rating,morningglory; [1],1
same,"Plant response rating, Morningglory",morningglory; [2],2
same,Morningglory plant response rating,morningglory; [3],3
same,"Plant response rating, Morningglory",morningglory; [4],6
same,Morningglory plant response rating,morningglory; [5],0
same,Morningglory plant response rating,morningglory; [6],0
same,"Plant response rating, Morningglory",morningglory; [7],6
same,"Plant response rating, Ducksalad (0 to 10 scale, 0 is no effect, 10 is complete control)",duck salad; [8],0
same,"Ducksalad plant response rating (0 to 10 scale, 0 is no effect, 10 is complete control)",duck salad; [9],0
same,Ducksalad plant response rating,duck salad; [10],0
same,Ducksalad plant response rating,duck salad; [11],0
same,Cocklebur plant response rating,cocklebur; [1],0
same,"Plant response rating, Cocklebur",cocklebur; [2],0
same,Cocklebur plant response rating,cocklebur; [3],0
same,"Plant response rating, Cocklebur",cocklebur; [4],2
same,Cocklebur plant response rating,cocklebur; [6],0
same,Cocklebur plant response rating (0 to 10 scale),"cocklebur; Preemergence, Rate 250 g/ha",0
same,"Plant response rating, Cocklebur",cocklebur; [7],0
same,Corn plant response rating,corn; [1],0
same,"Plant response rating, Corn",corn; [2],0
same,Corn plant response rating,corn; [3],2
same,"Plant response rating, Corn",corn; [4],3
same,Corn plant response rating,corn; [5],0
same,Corn plant response rating,corn; [6],0
same,Corn plant response rating (0 to 10 scale),"corn; Preemergence, Rate 250 g/ha",4
same,"Plant response rating, Corn",corn; [7],6
same,Crabgrass plant response rating,crabgrass; [1],5
same,"Plant response rating, Crabgrass",crabgrass; [2],8
same,Crabgrass plant response rating,crabgrass; [3],9
same,"Plant response rating, Crabgrass",crabgrass; [4],9
same,Crabgrass plant response rating,crabgrass; [5],7
same,Crabgrass plant response rating,crabgrass; [6],9
same,"Plant response rating, Crabgrass",crabgrass; [7],10
same,"Plant response rating, S. Flatsedge (0 to 10 scale, 0 is no effect, 10 is complete control)",smallflower flatsedge; [8],0
same,"S. Flatsedge plant response rating (0 to 10 scale, 0 is no effect, 10 is complete control)",smallflower flatsedge; [9],0
same,S. Flatsedge plant response rating,smallflower flatsedge; [10],0
same,S. Flatsedge plant response rating,smallflower flatsedge; [11],0
same,"Plant response rating, Redroot pigweed",pigweed; [2],0
same,Redroot pigweed plant response rating,pigweed; [3],3
same,"Plant response rating, Redroot pigweed",pigweed; [4],7
same,Redroot pigweed plant response rating,pigweed; [5],0
same,Redroot pigweed plant response rating,pigweed; [6],10
same,"Plant response rating, Redroot pigweed",pigweed; [7],10
same,"Plant response rating, Wheat",wheat; [2],0
same,Wheat plant response rating,wheat; [3],2
same,"Plant response rating, Wheat",wheat; [4],3
same,Wheat plant response rating,wheat; [5],0
same,Wheat plant response rating,wheat; [6],1
same,"Plant response rating, Wheat",wheat; [7],6
same,Rape plant response rating,rape; [1],0
same,"Plant response rating, Rape",rape; [2],0
same,Rape plant response rating,rape; [3],2
same,"Plant response rating, Rape",rape; [4],2
same,Rape plant response rating,rape; [5],4
same,Rape plant response rating,rape; [6],4
same,"Plant response rating, Rape",rape; [7],10
same,Nutsedge plant response rating,purple nutsedge; [1],0
same,"Plant response rating, Nutsedge",purple nutsedge; [2],0
same,Nutsedge plant response rating,purple nutsedge; [3],0
same,"Plant response rating, Nutsedge",purple nutsedge; [4],5
same,Nutsedge plant response rating,purple nutsedge; [6],3
same,"Plant response rating, Nutsedge",purple nutsedge; [7],4
same,B. signalgrass plant response rating,surinam grass; [1],0
same,"Plant response rating, B. signalgrass",surinam grass; [2],0
same,B. signalgrass plant response rating,surinam grass; [3],6
same,"Plant response rating, B. signalgrass",surinam grass; [4],6
same,B. signalgrass plant response rating,surinam grass; [5],2
same,B. signalgrass plant response rating,surinam grass; [6],6
same,"B. signalgrass plant response rating (0 to 10 scale, 0 is no effect, 10 is complete control)","surinam grass; Preemergence, Rate 250 g/ha",7
same,B. signalgrass plant response rating,surinam grass; [7],9
same,Blackgrass plant response rating,blackgrass; [1],3
same,"Plant response rating, Blackgrass",blackgrass; [2],7
same,Blackgrass plant response rating,blackgrass; [3],9
same,"Plant response rating, Blackgrass",blackgrass; [4],9
same,Blackgrass plant response rating,blackgrass; [5],6
same,Blackgrass plant response rating,blackgrass; [6],9
same,Blackgrass plant response rating (0 to 10 scale),"blackgrass; Preemergence, Rate 250 g/ha",10
same,Blackgrass plant response rating,blackgrass; [7],10
